molecular target: T1, MAT2A homodimer (Homo sapiens, UniProt P31153); test: MAT2A biochemical assay (liberated phosphate, PiColorLock Gold); details: Table 5a; MAT2A biochemical assay; read-out: Enzyme Inhibition
T1 construct: inferred from the Ni sepharose purification and imidazole elution; made in house; host or cells: SF9 insect cells, recombinant baculovirus (Bac to Bac, pFASTBAC1)
Experimental: Mat2A protein was expressed by recombinant baculovirus in SF9 infected cells using the Bac to Bac system cloned into the pFASTBAC1 vector (Invitrogen, Carlsbad, Calif.). Recombinant MAT2A was isolated from the cell lysate of 150 g of infected cells using HP Ni sepharose column chromatography. Recombinant MAT2A homodimer was eluted with 250 and 500 mM imidazole, and fractions containing MAT2A were identified by sodium dodecyl sulfate polyacrylamide gel electrophoresis and pooled.
Test compound was prepared in 100% dimethyl sulfoxide (DMSO) at 50× the desired final concentration. A 1 μL volume of compound dilution was added to 40 μL of enzyme dilution and the mixture was allowed to equilibrate for 60 minutes at 25° C. The enzymatic assay was initiated by the addition of 10 μL of substrate mix (500 μM ATP, pH 7.0, 400 μM L-methionine in 1× assay buffer), and the mixture was incubated for a further 60 minutes at 25° C. The reaction was halted and the liberated phosphate released by the enzyme in stoichiometric amounts by the production of S-adenosyl methionine (SAM) was measured using the PiColorLock Gold kit (Innova Biosciences, UK). Absolute product amounts were determined by comparison to a standard curve of potassium phosphate buffer, pH 8.0.

T1 sequence (P31153 whole entry): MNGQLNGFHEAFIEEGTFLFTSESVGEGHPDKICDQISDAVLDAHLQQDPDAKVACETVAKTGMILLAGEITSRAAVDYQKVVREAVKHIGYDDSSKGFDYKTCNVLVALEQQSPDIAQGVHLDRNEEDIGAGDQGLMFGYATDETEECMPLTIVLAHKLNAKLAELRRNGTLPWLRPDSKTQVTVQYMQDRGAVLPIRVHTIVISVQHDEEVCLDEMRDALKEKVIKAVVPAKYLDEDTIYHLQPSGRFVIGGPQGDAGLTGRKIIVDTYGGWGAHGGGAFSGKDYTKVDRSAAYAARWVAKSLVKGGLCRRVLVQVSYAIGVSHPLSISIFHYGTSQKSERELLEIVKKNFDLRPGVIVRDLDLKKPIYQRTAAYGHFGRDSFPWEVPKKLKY

| Structure (SMILES) | IC50 |
| --- | --- |
| CCN(CC)c1ccc2c(n1)N(c1ccc(OC)cc1)C(=O)N(c1ccc3nn(C)cc3c1)C2 [Example 159, 7-(diethylamino)-1-(4-methoxyphenyl)-3-(2-methyl-2H-indazol-5-yl)-3,4-dihydropyrido[2,3-d]pyrimidin-2(1H)-one] | 1 to 10 µM |
| COc1ccc(N2Cc3cnc(NCC(F)(F)F)nc3N(c3cn[nH]c3)C2=O)cc1 [Example 194, 3-(4-methoxyphenyl)-1-(1H-pyrazol-4-yl)-7-((2,2,2-trifluoroethyl)amino)-3,4-dihydropyrimido[4,5-d]pyrimidin-2(1H)-one] | 1 to 10 µM |
| COc1ccc(N2Cc3cnc(NCC(F)(F)F)nc3N(c3ccc(O)nc3)C2=O)cc1 [Example 197, 1-(6-hydroxypyridin-3-yl)-3-(4-methoxyphenyl)-7-((2,2,2-trifluoroethyl)amino)-3,4-dihydropyrimido[4,5-d]pyrimidin-2(1H)-one] | 1 to 10 µM |
| COC(=O)c1ccc(N2C(=O)N(c3ccc(OC)cc3)Cc3cnc(NCC(F)(F)F)nc32)cc1 [Example 203, methyl 4-(3-(4-methoxyphenyl)-2-oxo-7-((2,2,2-trifluoroethyl)amino)-3,4-dihydropyrimido[4,5-d]pyrimidin-1(2H)-yl)benzoate] | 0.1 to 1 µM |
| COc1ccc(N2Cc3cnc(NCC(F)(F)F)nc3N(c3ccc(N)cc3)C2=O)cc1 [Example 204, 1-(4-aminophenyl)-3-(4-methoxyphenyl)-7-((2,2,2-trifluoroethyl)amino)-3,4-dihydropyrimido[4,5-d]pyrimidin-2(1H)-one] | 0.1 to 1 µM |
| COC(=O)Cc1ccc(N2C(=O)N(c3ccc(OC)cc3)Cc3cnc(NCC(F)(F)F)nc32)cc1 [Example 205, methyl 2-(4-(3-(4-methoxyphenyl)-2-oxo-7-((2,2,2-trifluoroethyl)amino)-3,4-dihydropyrimido[4,5-d]pyrimidin-1(2H)-yl)phenyl)acetate] | 1 to 10 µM |
| COc1ccc(N2Cc3cnc(NCC(F)(F)F)nc3N(c3ccc(-c4ccsn4)cc3)C2=O)cc1 [Example 207, 1-(4-(isothiazol-3-yl)phenyl)-3-(4-methoxyphenyl)-7-((2,2,2-trifluoroethyl)amino)-3,4-dihydropyrimido[4,5-d]pyrimidin-2(1H)-one] | 1 to 10 µM |
| COc1ccc(N2Cc3cnc(NCC(F)(F)F)nc3N(c3cccc(OC)c3)C2=O)cc1 [Example 208, 1-(3-methoxyphenyl)-3-(4-methoxyphenyl)-7-((2,2,2-trifluoroethyl)amino)-3,4-dihydropyrimido[4,5-d]pyrimidin-2(1H)-one] | 0.1 to 1 µM |
| COCc1ccc(N2C(=O)N(c3ccc(OC)cc3)Cc3cnc(NCC(F)(F)F)nc32)cc1 [Example 209, 1-(4-(methoxymethyl)phenyl)-3-(4-methoxyphenyl)-7-((2,2,2-trifluoroethyl)amino)-3,4-dihydropyrimido[4,5-d]pyrimidin-2(1H)-one] | 0.1 to 1 µM |
| COc1ccc(N2Cc3cnc(NCC(F)(F)F)nc3N(c3ccc(-c4cscn4)cc3)C2=O)cc1 [Example 210, 3-(4-methoxyphenyl)-1-(4-(thiazol-4-yl)phenyl)-7-((2,2,2-trifluoroethyl)amino)-3,4-dihydropyrimido[4,5-d]pyrimidin-2(1H)-one] | 0.1 to 1 µM |
| COc1ccc(N2Cc3cnc(NCC(F)(F)F)nc3N(c3ccc(-c4cn[nH]c4)cc3)C2=O)cc1 [Example 211, 1-(4-(1H-pyrazol-4-yl)phenyl)-3-(4-methoxyphenyl)-7-((2,2,2-trifluoroethyl)amino)-3,4-dihydropyrimido[4,5-d]pyrimidin-2(1H)-one] | 0.1 to 1 µM |
| COc1ccc(N2Cc3cnc(NCC(F)(F)F)nc3N(c3ccc(C(C)C)cc3)C2=O)cc1 [Example 212, 1-(4-isopropylphenyl)-3-(4-methoxyphenyl)-7-((2,2,2-trifluoroethyl)amino)-3,4-dihydropyrimido[4,5-d]pyrimidin-2(1H)-one] | 0.1 to 1 µM |

Continued, values first:

| IC50 | Structure (SMILES) |
| --- | --- |
| 0.1 to 1 µM | CCOc1ccc2c(n1)N(c1ccc(OC)cc1)C(=O)N(c1cncs1)C2 [Example 127, ethoxy-1-(4-methoxyphenyl)-3-(thiazol-5-yl)-3,4-dihydropyrido[2,3-d]pyrimidin-2(1H)-one] |
| 0.1 to 1 µM | CCOc1ccc2c(n1)N(c1cnc(C(F)(F)F)nc1)C(=O)N(c1ccc3nn(C)cc3c1)C2 [Example 148, 7-ethoxy-3-(2-methyl-2H-indazol-5-yl)-1-(2-(trifluoromethyl)pyrimidin-5-yl)-3,4-dihydropyrido[2,3-d]pyrimidin-2(1H)-one] |
| < 0.1 µM | CCOc1ccc2c(n1)N(c1ccc(C(F)(F)F)nc1)C(=O)N(c1ccc3nn(C)cc3c1)C2 [Example 150] |
| 0.1 to 1 µM | CCOc1ccc2c(n1)N(c1ccc(C)nc1)C(=O)N(c1ccc3nn(C)cc3c1)C2 [Example 151, 7-ethoxy-3-(2-methyl-2H-indazol-5-yl)-1-(6-methylpyridin-3-yl)-3,4-dihydropyrido[2,3-d]pyrimidin-2(1H)-one] |
| 0.1 to 1 µM | COc1ccc(N2C(=O)N(c3ccc4nn(C)cc4c3)Cc3ccc(N4CCOCC4)nc32)cc1 [Example 157, 1-(4-methoxyphenyl)-3-(2-methyl-2H-indazol-5-yl)-7-morpholino-3,4-dihydropyrido[2,3-d]pyrimidin-2(1H)-one] |
| 0.1 to 1 µM | COc1ccc(N2C(=O)N(c3ccc4nn(C)cc4c3)Cc3ccc(N4CCCC4)nc32)cc1 [Example 158, 1-(4-methoxyphenyl)-3-(2-methyl-2H-indazol-5-yl)-7-(pyrrolidin-1-yl)-3,4-dihydropyrido[2,3-d]pyrimidin-2(1H)-one] |
| 0.1 to 1 µM | COc1ccc(N2C(=O)N(c3ccc4nn(C)cc4c3)Cc3ccc(N(C)C)nc32)cc1 [Example 160, 7-(dimethylamino)-1-(4-methoxyphenyl)-3-(2-methyl-2H-indazol-5-yl)-3,4-dihydropyrido[2,3-d]pyrimidin-2(1H)-one] |
| 0.1 to 1 µM | [2H]C([2H])([2H])Oc1ccc(N2C(=O)N(c3ccc4nn(C)cc4c3)Cc3ccc(OCCC(F)(F)F)nc32)cc1 [Example 166, 1-(4-methoxy-d3-phenyl)-3-(2-methyl-2H-indazol-5-yl)-7-(3,3,3-trifluoropropoxy)-3,4-dihydropyrido[2,3-d]pyrimidin-2(1H)-one] |
| < 0.1 µM | Cn1cc2cc(N3Cc4ccc(OCC(F)F)nc4N(c4ccc5nccn5c4)C3=O)ccc2n1 [Example 171, 7-(2,2-difluoroethoxy)-1-(imidazo[1,2-a]pyridin-6-yl)-3-(2-methyl-2H-indazol-5-yl)-3,4-dihydropyrido[2,3-d]pyrimidin-2(1H)-one] |
| 0.1 to 1 µM | Cn1cc2cc(N3Cc4ccc(OCC(F)F)nc4N(c4ccc5ncn(C)c5c4)C3=O)ccc2n1 [Example 173, 7-(2,2-difluoroethoxy)-1-(1-methyl-1H-benzo[d]imidazol-6-yl)-3-(2-methyl-2H-indazol-5-yl)-3,4-dihydropyrido[2,3-d]pyrimidin-2(1H)-one] |
| 0.1 to 1 µM | Cn1cc2cc(N3Cc4ccc(OCC(F)F)nc4N(c4ccc5ncnn5c4)C3=O)ccc2n1 [Example 174, 1-([1,2,4]triazolo[1,5-a]pyridin-6-yl)-7-(2,2-difluoroethoxy)-3-(2-methyl-2H-indazol-5-yl)-3,4-dihydropyrido[2,3-d]pyrimidin-2(1H)-one] |
| 0.1 to 1 µM | COc1ccc(N2Cc3cnc(NCC(F)(F)F)nc3N(c3ccc(S(C)(=O)=O)cc3)C2=O)cc1 [Example 189, 3-(4-methoxyphenyl)-1-(4-(methylsulfonyl)phenyl)-7-((2,2,2-trifluoroethyl)amino)-3,4-dihydropyrimido[4,5-d]pyrimidin-2(1H)-one] |
| < 0.1 µM | Cn1cc2cc(N3Cc4cnc(OCC(F)(F)F)nc4N(c4ccc(-c5nc[nH]n5)cc4)C3=O)ccc2n1 [Example 191, 1-(4-(1H-1,2,4-triazol-3-yl)phenyl)-3-(2-methyl-2H-indazol-5-yl)-7-(2,2,2-trifluoroethoxy)-3,4-dihydropyrimido[4,5-d]pyrimidin-2(1H)-one] |
| 0.1 to 1 µM | COc1ccc(N2Cc3cnc(NCC(F)(F)F)nc3N(c3ccc(-c4cn[nH]n4)cc3)C2=O)cc1 [Example 192, 1-(4-(2H-1,2,3-triazol-4-yl)phenyl)-3-(4-methoxyphenyl)-7-((2,2,2-trifluoroethyl)amino)-3,4-dihydropyrimido[4,5-d]pyrimidin-2(1H)-one] |
| < 0.1 µM | COc1ccc(N2Cc3cnc(NCC(F)(F)F)nc3N(c3ccc(SC)cc3)C2=O)cc1 [Example 198, 3-(4-methoxyphenyl)-1-(4-(methylthio)phenyl)-7-((2,2,2-trifluoroethyl)amino)-3,4-dihydropyrimido[4,5-d]pyrimidin-2(1H)-one] |
| 0.1 to 1 µM | CCC(=O)c1ccc(N2C(=O)N(c3ccc(OC)cc3)Cc3cnc(NCC(F)(F)F)nc32)cc1 [Example 199, 3-(4-methoxyphenyl)-1-(4-propionylphenyl)-7-((2,2,2-trifluoroethyl)amino)-3,4-dihydropyrimido[4,5-d]pyrimidin-2(1H)-one] |
| < 0.1 µM | COc1ccc(N2Cc3cnc(NCC(F)(F)F)nc3N(c3cc4ccccc4s3)C2=O)cc1 [Example 200, 1-(benzo[b]thiophen-2-yl)-3-(4-methoxyphenyl)-7-((2,2,2-trifluoroethyl)amino)-3,4-dihydropyrimido[4,5-d]pyrimidin-2(1H)-one] |
| < 0.1 µM | COc1ccc(N2Cc3cnc(NCC(F)(F)F)nc3N(c3ccc(N(C)C)cc3)C2=O)cc1 [Example 201, 1-(4-(dimethylamino)phenyl)-3-(4-methoxyphenyl)-7-((2,2,2-trifluoroethyl)amino)-3,4-dihydropyrimido[4,5-d]pyrimidin-2(1H)-one] |

Reference: US20220098203A1 (priority 2018, published 2022)
